Results taken from patent publication US20070196848A1, “DETECTION OF PHOSPHORYLATED eIF2-alpha AS A DIAGNOSTIC TEST FOR EFFICACY AND SENSITIVITY OF TRANSLATION INITIATION INHIBITORS IN THE TREATMENT OF CANCER AND OTHER PROLIFERATIVE DISEASES” (priority 2004, published 2007).

Legend:
[1] = test system: 5′ UTR of BRCA1 mRNA; assay: firefly luciferase reporter with 5′ UTR of BRCA1 mRNAa or mRNAb in MCF-7 cells; assay type: cell-based, human; conditions: renilla luciferase internal control
From the text: (§1) FIGS. 4A-4C depict dose-dependent up-regulation of BRCA1 in MCF-7 breast cancer cells by EPA (A) and CLT (B). Upper bands, BRCA1; lower bands, actin.
(§2) MCF-7 breast cancer cells, known to have very low levels of BRCA1 protein, were exposed to CLT and EPA. […] To confirm that up-regulation of BRCA1 was at the level of translation, the 5′ UTRs of either BRCA1 mRNAa or mRNAb were placed in front of the firefly luciferase reporter gene using in both cases renilla luciferase as an internal control. These constructs were transfected into MCF-7 breast cancer cells. […] Without intending to be bound by theory, these experiments indicate that the inhibitors of translation initiation that induce phosphorylation of eIF2α restrict the availability of the ternary complex to translationally up-regulate the tumor suppressor gene BRCA1, a critical player in many types of sporadic breast and ovarian cancers.

[2] = test system: BRCA1; assay: BRCA1 expression in MCF-7 breast cancer cells; assay type: cell-based, human; conditions: MCF-7 cells, dose-dependent
From the text: as §1, §2

[3] = test system: Hep-G2; assay: sulfarodamine B cell growth assay (SRB); assay type: cell-based; conditions: Homo sapiens, HepG2; Hep-G2, Liver
From the text: (§3) The effect of EPA on the proliferation of a panel of cancer cell lines representative of most common human cancers was studied using the sulfarodamine B cell growth assay (SRB). EPA inhibited the proliferation of all cancer cell lines tested, including androgen dependent and androgen independent prostate cancer cell lines (LNCaP, PC-3 and DU-145) in a dose dependent manner (Table 1: effect of EPA on human cancer cello growth).

[4] = test system: ACHN; assay: sulfarodamine B cell growth assay (SRB); assay type: cell-based; conditions: Homo sapiens, Kidney
From the text: as §3

[5] = test system: LNCaP; assay: sulfarodamine B cell growth assay (SRB); assay type: cell-based; conditions: Homo sapiens, Prostate
From the text: as §3

[6] = test system: HT-29; assay: sulfarodamine B cell growth assay (SRB); assay type: cell-based; conditions: Homo sapiens; HT-29, Colon
From the text: as §3

[7] = test system: U-118 MG; assay: sulfarodamine B cell growth assay (SRB); assay type: cell-based; conditions: Homo sapiens, Glioblastoma
From the text: as §3

[8] = test system: HCT-15; assay: sulfarodamine B cell growth assay (SRB); assay type: cell-based; conditions: Homo sapiens; HCT-15, Colon
From the text: as §3

[9] = test system: MMRU; assay: sulfarodamine B cell growth assay (SRB); assay type: cell-based; conditions: Homo sapiens, Skin
From the text: as §3

[10] = test system: HeLa; assay: sulfarodamine B cell growth assay (SRB); assay type: cell-based; conditions: Homo sapiens, Cervix
From the text: as §3

[11] = test system: SK-Mel-28; assay: sulfarodamine B cell growth assay (SRB); assay type: cell-based; conditions: Homo sapiens; SK-Mel-28, Skin
From the text: as §3

[12] = test system: DU-145; assay: sulfarodamine B cell growth assay (SRB); assay type: cell-based; conditions: Homo sapiens; DU-145, Prostate
From the text: as §3

[13] = test system: SK-OV3; assay: sulfarodamine B cell growth assay (SRB); assay type: cell-based; conditions: Homo sapiens, SK-OV-3; SK-OV3, Ovary
From the text: as §3

[14] = test system: PC-3; assay: sulfarodamine B cell growth assay (SRB); assay type: cell-based; conditions: Homo sapiens; PC-3, Prostate
From the text: as §3

[15] = test system: MDAMB231; assay: sulfarodamine B cell growth assay (SRB); assay type: cell-based; conditions: Homo sapiens, MDA-MB-231; MDAMB231, Breast
From the text: as §3

[16] = test system: MCF-7; assay: sulfarodamine B cell growth assay (SRB); assay type: cell-based; conditions: Homo sapiens, MCF7; MCF-7, Breast
From the text: as §3

[17] = test system: Caski-1; assay: sulfarodamine B cell growth assay (SRB); assay type: cell-based; conditions: Homo sapiens; Caski-1, Cervix
From the text: as §3

[18] = test system: A549; assay: sulfarodamine B cell growth assay (SRB); assay type: cell-based; conditions: Homo sapiens; A549, Lung
From the text: as §3

[19] = test system: PC-3 human prostate tumors; assay: orthotopic xenograft model of human prostate cancer, survival; assay type: in vivo, mouse; conditions: PC-3 orthotopic, gavage 2.5 grams/kilogram/day
From the text: FIGS. 14A-14F depict the effect of EPA on xenograft cancer models. (A) EPA increased the mean survival time in an orthotopic model of PC-3 human prostate tumors (left, corn oil; right, EPA). (B) EPA reduced tumor growth in an orthotopic syngenic model of KLN mouse squamous cell carcinoma (5 weeks) (left, corn oil; right, EPA). (C) EPA induced phosphorylation of eIF2α in the KLN tumors (left, corn oil; middle, EPA1;
Human PC-3 prostate cancer cells stably transfected with the GFP fluorescent marker were implanted into mouse prostate glands and tumors were allowed to establish. Mice with tumors detectable by whole body fluorescent scanning were treated with EPA or corn oil, orally administered by gavage (2.5 grams/kilogram/day).

[20] = test system: eIF2α phosphorylation; assay: immunoblot with anti-S51-P-eIF2α-specific antibody in DU-145 cells; assay type: cell-based, human; conditions: two hours
Protocol: To investigate whether depletion of Ca^++ stores by EPA causes activation of eIF2α kinases and phosphorylation of eIF2α in prostate cancer cells, DU-145 cells were incubated with or without increasing concentrations of EPA for two hours.

[21] = test system: HTB-174; assay: sulfarodamine B cell growth assay (SRB); assay type: cell-based; conditions: Homo sapiens; HTB-174, Lung
From the text: The effect of EPA on the proliferation of a panel of cancer cell lines representative of most common human cancers was studied using the sulfarodamine B cell growth assay (SRB).

[22] = test system: DU-145 cells transfected with eIF2αWT; assay: cell cycle distribution of GFP expressing cells by FACS; assay type: cell-based, human; conditions: WT, GFP-expressing DU-145 cells
Protocol: (§4) FIG. 10 depicts cell cycle inhibition by EPA that is dependent on eIF2α phosphorylation. DU-145 human prostate cancer cell lines were transiently transfected with eIF2α-51A-GFP or eIF2α-WT-GFP plasmids, treated with EPA or vehicle, stained with propidium iodide and cell cycle distribution of GFP transfected cells was determined.
(§5) eIF2α51A is a […] non-phosphorylatable mutant of eIF2α in which serine 51 has been replaced by alanine (FIG. 9). To confirm that eIF2α phosphorylation is also critical for EPA-mediated inhibition of cell proliferation in prostate cancer cells, DU-145 cells were transiently transfected with a construct that co-expresses the fluorescent marker GFP with either eIF2αWT (i.e., eIF2α wild-type) or eIF2α51A. These cells were treated with either EPA or vehicle DMSO, and the cell cycle distribution of GFP expressing cells was determined by FACS analysis.

[23] = test system: DU-145 cells transfected with eIF2α51A; assay: as above; assay type: cell-based, human; conditions: 51A, GFP-expressing DU-145 cells
Protocol: as §4, §5

[24] = test system: p53^−/− mice
From the text: p53 is the most commonly mutated gene in human cancers. The anti-cancer activity of EPA was investigated in p53^−/− mice, which develop a wide variety of spontaneous tumors with 100% penetrance and die from cancer within 50 weeks of age. Age and sex matched animals were randomly distributed to treatment (2.5 grams/kilogram EPA) or control (2.5 grams/kilogram corn oil) administered daily by gavage.

## Clc1ccccc1C(c1ccccc1)(c1ccccc1)n1ccnc1 [CLT, clotrimazole]
[1]
  translation of reporter fused to 5′ UTR of BRCA1 mRNAb: significantly up-regulated translation
[2]
  up-regulation of BRCA1: significant up-regulation of BRCA1

## CC/C=C\C/C=C\C/C=C\C/C=C\C/C=C\CCCC(=O)O [EPA, eicosapentaenoic acid]
[3]
  IC50: 24 µM
[4]
  IC50: 62 µM
[5]
  IC50: 18 µM
[6]
  IC50: 72 µM
[7]
  IC50: 36 µM
[8]
  IC50: 47 µM
[9]
  IC50: 36 µM
[10]
  IC50: 10 µM
[11]
  IC50: 46 µM
[12]
  IC50: 36 µM
[13]
  IC50: 96 µM
[14]
  IC50: 20 µM
[15]
  IC50: 37 µM
[16]
  IC50: 43 µM
[17]
  IC50: 76 µM
[18]
  IC50: 54 µM
[19]
  longer mean survival time than corn oil: 50%
  mean survival time: 38 ± 5 days
[20]
  increase in eIF2α phosphorylation: approximately 10 fold
[21]
  IC50: 79 µM
[22]
  % G1: 67%
  % G2/M: 14%
  % S: 19%
[23]
  % G1: 48%
  % G2/M: 21%
  % S: 31%
[24]; mouse, in vivo
  sign of toxicity: Neither control nor EPA treated animals showed any sign of toxicity
[24]; oral 2.5 grams/kilogram/day from four weeks of age
  mean survival time (Kaplan-Meier): 385 ± 12 days
